# Assay results as given in patent publication US20230094922A1, “METHODS OF THERAPEUTIC PROGNOSTICATION” (GENETIKAPLUS LTD., priority 2020, published 2023).
# Tested on: iPSC-derived cortical neurons
# Type: cell-based
# [1] = responders vs non-responders after 10 μM Bupropion, p<0.01
# [2] = responders vs non-responders, 10 μM Bupropion, NS
# [3] = responders vs non-responders, 10 μM Bupropion, p<0.01
smiles,measurement,setting,value
"CC(NC(C)(C)C)C(=O)c1cccc(Cl)c1 (stereo not drawn) [Bupropion, 3-Chloro-N-tert-butyl-β-keto-α-methylphenethylamin]",logFC PLCH2,[1],−1.051
same,logFC PLD5,[1],−1.909
same,logFC PLEKHD1,[1],−3.283
same,logFC PLPP4,[1],−0.9989
same,logFC PODN,[1],−1.12
same,logFC POLR2J3,[1],−0.756
same,logFC POU4F1,[1],−1.728
same,logFC PRCD,[1],−1.032
same,logFC PRPH,[1],−2.033
same,logFC PRSS33,[1],−1.593
same,logFC PSD4,[1],−0.7234
same,logFC PSMB8,[1],−1.14
same,logFC PSMB9,[1],−1.682
same,logFC PTGDS,[1],−1.612
same,logFC PTGER2,[1],−2.59
same,logFC RAB42,[1],−0.5093
same,logFC RBMS3,[1],−0.8065
same,logFC RBP1,[1],−0.6676
same,logFC RPH3A,[1],−2.057
same,logFC RSAD2,[1],−1.646
same,logFC S100B,[1],−1.744
same,logFC SAMD9,[1],−1.373
same,logFC SAMD9L,[1],−1.954
same,logFC SH3TC2,[1],−1.437
same,logFC SKOR2,[1],−2.986
same,logFC SLC2A1,[1],−0.6362
same,logFC SLC4A4,[1],−1.35
same,logFC SLC38A3,[1],−0.8613
same,logFC SMPD1,[1],−0.5833
same,logFC SST,[1],−1.012
same,logFC SUN2,[1],−0.4523
same,logFC SUSD1,[1],−0.629
same,logFC SYNC,[1],−1.688
same,logFC TAF1C,[1],−0.387
same,logFC TAP1,[1],−0.8369
same,logFC TAP2,[1],−0.8068
same,logFC TBC1D2,[1],−0.6958
same,logFC TF,[1],−1.257
same,logFC THBS2,[1],−1.7
same,logFC TLR6,[1],−1.138
same,logFC TLX1,[1],−2.764
same,logFC TLX3,[1],−1.593
same,logFC TMC3,[1],−2.021
same,logFC TMEM175,[1],−0.5016
same,logFC TMEM176A,[1],−1.203
same,logFC TMEM176B,[1],−1.184
same,logFC TNFRSF14,[1],−1.091
same,logFC TRAF1,[1],−0.9274
same,logFC TREM1,[1],−2.481
same,logFC TRIM8,[1],−0.2802
same,logFC TRMT9B,[1],−0.6888
same,logFC TRPV2,[1],−1.594
same,logFC TSHZ3,[1],−1.109
same,logFC USH1C,[1],−1.858
same,logFC USP18,[1],−0.9659
same,logFC VLDLR,[1],−0.4024
same,logFC VSTM2B,[1],−1.079
same,logFC ZFPM1,[1],−0.5127
same,logFC ZNF575,[1],−0.87
same,logFC ADAMTS9 expression,[2],0.9659
same,logFC ADGRE5 expression,[2],0.9432
same,logFC AMMECR1 expression,[2],0.7173
same,logFC ANKRD1 expression,[2],2.712
same,logFC ANKRD18A expression,[2],1.155
same,logFC ANKRD33B expression,[2],0.8016
same,logFC ANLN expression,[2],0.911
same,logFC AP3B1 expression,[2],0.7614
same,logFC ARHGAP10 expression,[2],1.24
same,logFC ARHGAP11A expression,[2],0.7121
same,logFC ARHGAP19 expression,[2],0.5865
same,logFC ARL11 expression,[2],0.8189
same,logFC BAX expression,[2],0.4774
same,logFC BUB1 expression,[2],0.6384
same,logFC C18orf54 expression,[2],0.7328
same,logFC CD53 expression,[2],1.712
same,logFC CDCA7 expression,[2],0.949
same,logFC CDK1 expression,[2],0.9851
same,logFC CDV3 expression,[2],0.7482
same,logFC CENPA expression,[2],1.025
same,logFC CENPH expression,[2],0.8278
same,logFC CENPW expression,[2],0.7956
same,logFC CHEK2 expression,[2],0.7669
same,logFC CHMP4C expression,[2],0.6773
same,logFC CHTF18 expression,[2],0.4356
same,logFC CKS1B expression,[2],0.5869
same,logFC CKS2 expression,[2],0.7778
same,logFC CNN1 expression,[2],0.8796
same,logFC COL17A1 expression,[2],1.832
same,logFC CPVL expression,[2],0.8555
same,logFC CRYZ expression,[2],1.044
same,logFC CSF3R expression,[2],2.81
same,logFC DAG1 expression,[2],0.5339
same,logFC DCP2 expression,[2],0.7702
same,logFC DEPDC1 expression,[2],1.005
same,logFC DHRS2 expression,[2],3.271
same,logFC DIAPH3 expression,[2],0.9363
same,logFC DLGAP5 expression,[2],0.8304
same,logFC DLX4 expression,[2],1.485
same,logFC DLX5 expression,[2],2.138
same,logFC DNMBP expression,[2],0.5323
same,logFC DSG2 expression,[2],0.746
same,logFC DSG3 expression,[2],2.297
same,logFC DSP expression,[2],1.327
same,logFC DUSP6 expression,[2],0.9289
same,logFC EDA2R expression,[2],0.569
same,logFC EFHD1 expression,[2],0.872
same,logFC EGLN3 expression,[2],1.216
same,logFC ELK3 expression,[2],0.9378
same,logFC EME1 expression,[2],0.7814
same,logFC EPHA7 expression,[2],1.592
same,logFC ERLIN1 expression,[2],0.5945
same,logFC ESAM expression,[2],1.688
same,logFC EXOC3L2 expression,[2],1.012
same,logFC FAM72A expression,[2],1.123
same,logFC FAM72B expression,[2],0.9318
same,logFC FAS expression,[2],1.079
same,logFC FBXO5 expression,[2],0.7533
same,logFC FGF23 expression,[2],1.468
same,logFC FNDC1 expression,[2],0.9667
same,logFC FOSL1 expression,[2],1.137
same,logFC FOXL1 expression,[2],1.191
same,logFC FUT10 expression,[2],0.6404
same,logFC GNPNAT1 expression,[2],1.06
same,logFC GTF2H3 expression,[2],0.8228
same,logFC HACD2 expression,[2],0.8389
same,logFC HAT1 expression,[2],0.7547
same,logFC HDAC1 expression,[2],0.4991
same,logFC HHIPL2 expression,[2],1.368
same,logFC HIBADH expression,[2],0.5725
same,logFC HMGB2 expression,[2],0.5953
same,logFC HMMR expression,[2],0.9939
same,logFC HNMT expression,[2],1.877
same,logFC IMPACT expression,[2],0.7315
same,logFC INPP5D expression,[2],1.208
same,logFC IQGAP3 expression,[2],0.6692
same,logFC ITGA2 expression,[2],0.6822
same,logFC KIAA1217 expression,[2],0.8875
same,logFC KIF2C expression,[2],0.6989
same,logFC KIF11 expression,[2],0.7863
same,logFC KIF14 expression,[2],0.7995
same,logFC KIF20B expression,[2],0.8251
same,logFC KIF23 expression,[2],0.7114
same,logFC KRT8 expression,[2],1.26
same,logFC KRT18 expression,[2],1.596
same,logFC L2HGDH expression,[2],0.7542
same,logFC LAMC1 expression,[2],0.8644
same,logFC LPP expression,[2],0.7521
same,logFC LRP4 expression,[2],1.051
same,logFC LRRC15 expression,[2],0.6532
same,logFC LTA4H expression,[2],0.6494
same,logFC MAD2L1 expression,[2],0.8373
same,logFC MAN2A1 expression,[2],0.8316
same,logFC MATN3 expression,[2],0.9618
same,logFC MDM2 expression,[2],0.6788
same,logFC MELK expression,[2],0.849
same,logFC MGST1 expression,[2],0.9354
same,logFC MICB expression,[2],0.9474
same,logFC MSX2 expression,[2],1.687
same,logFC MT1E expression,[2],0.1751
same,logFC MTBP expression,[2],0.7803
same,logFC MUC4 expression,[2],0.8705
same,logFC NDC1 expression,[2],0.8188
same,logFC NDC80 expression,[2],0.8291
same,logFC NEMP1 expression,[2],0.791
same,logFC NGF expression,[2],0.7928
same,logFC NLRP1 expression,[2],1.235
same,logFC NOSTRIN expression,[2],1.169
same,logFC NPPB expression,[2],1.671
same,logFC NUF2 expression,[2],0.7214
same,logFC NUP37 expression,[2],0.7592
same,logFC NUPR1 expression,[2],1.745
same,logFC ORC6 expression,[2],0.8019
same,logFC PADI1 expression,[2],0.9659
same,logFC PGM2 expression,[2],0.8787
same,logFC PLAU expression,[2],2.302
same,logFC PMP22 expression,[2],1.525
same,logFC POLQ expression,[2],0.7494
same,logFC PPP1R13L expression,[2],0.8159
same,logFC PRDX6 expression,[2],0.5898
same,logFC PROCR expression,[2],1.393
same,logFC PRR11 expression,[2],0.6089
same,logFC PTGR1 expression,[2],0.6824
same,logFC PYGL expression,[2],0.8577
same,logFC RAD51AP1 expression,[2],1.085
same,logFC RBMS1 expression,[2],0.7861
same,logFC RPL22L1 expression,[2],1.141
same,logFC RPS27L expression,[2],0.7459
same,logFC RREB1 expression,[2],0.5116
same,logFC RRM2B expression,[2],0.7867
same,logFC RUNX2 expression,[2],0.8924
same,logFC S1PR5 expression,[2],1.906
same,logFC SELENOV expression,[2],0.8135
same,logFC SEM1 expression,[2],0.5019
same,logFC SEPSECS expression,[2],0.7254
same,logFC SEPTIN10 expression,[2],0.7236
same,logFC SERPINE1 expression,[2],2.019
same,logFC SESN1 expression,[2],0.7238
same,logFC SFT2D1 expression,[2],0.6487
same,logFC SLC22A31 expression,[2],0.9625
same,logFC SLC47A1 expression,[2],2.056
same,logFC SPDL1 expression,[2],0.7492
same,logFC SPOCD1 expression,[2],1.33
same,logFC SPP1 expression,[2],1.215
same,logFC STIL expression,[2],0.759
same,logFC STX3 expression,[2],0.5017
same,logFC SWAP70 expression,[2],0.8869
same,logFC TAF4B expression,[2],0.9582
same,logFC TFPI2 expression,[2],1.367
same,logFC TGIF1 expression,[2],0.8371
same,logFC TM7SF3 expression,[2],0.5627
same,logFC TMTC1 expression,[2],1.156
same,logFC TNFRSF10D expression,[2],0.8463
same,logFC TNFRSF12A expression,[2],0.7449
same,logFC TOP2A expression,[2],0.7201
same,logFC TPM1 expression,[2],0.7857
same,logFC TRAM2 expression,[2],0.5417
same,logFC TRIAP1 expression,[2],0.7343
same,logFC TTK expression,[2],0.82
same,logFC UBE2C expression,[2],0.5692
same,logFC USP28 expression,[2],0.4989
same,logFC USP53 expression,[2],0.8262
same,logFC VRK1 expression,[2],0.7229
same,logFC VWDE expression,[2],1.176
same,logFC WEE1 expression,[2],1.13
same,logFC WNT9B expression,[2],0.5972
same,logFC WWC2 expression,[2],0.7083
same,logFC XPO1 expression,[2],0.7396
same,logFC YBX3 expression,[2],0.5165
same,logFC ZGRF1 expression,[2],0.9121
same,logFC ZIC2 expression,[2],0.7767
same,logFC ADAL expression,[3],0.3007
same,logFC ANKRD27 expression,[3],0.3035
same,logFC ARHGEF26 expression,[3],0.4633
same,logFC ATAD5 expression,[3],0.5442
same,logFC BAG4 expression,[3],0.4071
same,logFC CCDC150 expression,[3],0.6042
same,logFC CDH6 expression,[3],0.9224
same,logFC CHML expression,[3],0.4888
same,logFC DHFR expression,[3],0.5987
same,logFC DLX2 expression,[3],0.9412
same,logFC DMRTA1 expression,[3],0.858
same,logFC DNA2 expression,[3],0.5431
same,logFC EIF1AX expression,[3],0.5493
same,logFC F8 expression,[3],0.4608
same,logFC FBXO22 expression,[3],0.2957
same,logFC FREM2 expression,[3],0.865
same,logFC GPC3 expression,[3],1.257
same,logFC HAUS6 expression,[3],0.5025
same,logFC HLA-DMA expression,[3],0.9185
same,logFC ITGA6 expression,[3],0.5208
